Assay: recombinant UMI read abundance after kanamycin selection (control-corrected) (log10(CPM+1)); higher = more efficient recombination; extreme values may be limits of the assay; sequences stand for … in AGTGCAGAGAAAATCGGCCAGTTTTCTCTGCCTGCAGTCCGCATGCCGTGGGACCCCTTGGGTTCTAACCTGTTGCCTAGATTTATGCAGCGGACTGCCTTTCTCCCAAAGTGATAAACCGG…AGGTTGGTTTCACT; site = the 11-nt donor
In short: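 Pooled Escherichia coli screen of donor and donor-binding-loop pairs for the IS621 bridge recombinase. Each pair sits with a 12-nt UMI on a plasmid carrying a promoterless kanamycin gene. The library was co-electroporated with a target plasmid encoding a fixed target and T7-inducible recombinase, then plated with IPTG (0.07 mM) plus kanamycin, or unselected, each in two replicates. Recombinant UMIs were PCR-amplified across the donor–target junction and sequenced. Counts became CPM, averaged over replicates, scaled by control-derived factors and reported as log10(CPM+1).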
In the case of “CGAGCATCATGGACCGGTTTTCCCGGTAATCCGTATTTGGT (site CGAGCATCTAC)”, the “recombinant UMI read abundance (log10)” value is reported as 2.34.
For “ACAGTATCATGGACCGGTTTTCCCGGTAATCCGTATTTGCA (site ACAGCATCTCG)”, the “recombinant UMI read abundance (log10)” value was 0.00554.
For “TCTAGAACATGGACCGGTTTTCCCGGTAATCCGTATTTGTC (site TCTAGAACTGA)”, the “recombinant UMI read abundance (log10)” value was 0.
For “GTGCATGCATGGACCGGTTTTCCCGGTAATCCGTATTTGAT (site GTGCATGCTAC)”, the “recombinant UMI read abundance (log10)” value was 0.265.
For “CTGCCTACATGGACCGGTTTTCCCGGTAATCCGTATTTGAG (site CTCCCTACTCT)”, the “recombinant UMI read abundance (log10)” value was 0.00401.
For “TCTAGTGCATGGACCGGTTTTCCCGGTAATCCGTATTTGGT (site GCTAGTGCTAC)”, the “recombinant UMI read abundance (log10)” value was 0.
For “CTAGGTGCATGGACCGGTTTTCCCGGTAATCCGTATTTGAT (site CTAGGTGCTAT)”, the “recombinant UMI read abundance (log10)” value was 2.14.
With “AGCCTAGCATGGACCGGTTTTCCCGGTAATCCGTATTTGTT (site ATCCTAGCTAA)” the “recombinant UMI read abundance (log10)” value was 0.0142.
With “AGGTTCCCATGGACCGGTTTTCCCGGTAATCCGTATTTGTG (site ATGTTCCCTCA)” the “recombinant UMI read abundance (log10)” value was 0.0101.
In the case of “CCCTAGCCATGGACCGGTTTTCCCGGTAATCCGTATTTGCC (site CCCTAGACTGG)”, the “recombinant UMI read abundance (log10)” value is reported as 0.
For “TCCTAGGCATGGACCGGTTTTCCCGGTAATCCGTATTTGGT (site TGCTAGGCTAC)”, the “recombinant UMI read abundance (log10)” value was 0.0178.
For “CGAACATCATGGACCGGTTTTCCCGGTAATCCGTATTTGCT (site CGGACATCTAG)”, the “recombinant UMI read abundance (log10)” value was 0.583.
In the case of “GGGAATCCATGGACCGGTTTTCCCGGTAATCCGTATTTGAA (site GGCAATCCTTT)”, the “recombinant UMI read abundance (log10)” value is reported as 0.00362.
In the case of “GGAGCGGCATGGACCGGTTTTCCCGGTAATCCGTATTTGGT (site GGAGAGGCTAC)”, the “recombinant UMI read abundance (log10)” value is reported as 0.
For “GGTAAGTCATGGACCGGTTTTCCCGGTAATCCGTATTTGTT (site GGTATGTCTAA)”, the “recombinant UMI read abundance (log10)” value was 0.00986.
With “GTCGGTACATGGACCGGTTTTCCCGGTAATCCGTATTTGAC (site GTCGGTACTGT)” the “recombinant UMI read abundance (log10)” value was 1.32.
For “CGTTTGTCATGGACCGGTTTTCCCGGTAATCCGTATTTGCT (site CGTTTGTCTAG)”, the “recombinant UMI read abundance (log10)” value was 1.92.
For “AGCCCCGCATGGACCGGTTTTCCCGGTAATCCGTATTTGTT (site AGCCCCGCTAA)”, the “recombinant UMI read abundance (log10)” value was 1.12.
For “TGTTAGGCATGGACCGGTTTTCCCGGTAATCCGTATTTGGT (site TGATAGGCTAC)”, the “recombinant UMI read abundance (log10)” value was 0.0087.
With “TCCACCGCATGGACCGGTTTTCCCGGTAATCCGTATTTGAG (site TCCACCGCTCC)” the “recombinant UMI read abundance (log10)” value was 0.0231.
For “CTACTATCATGGACCGGTTTTCCCGGTAATCCGTATTTGAA (site CTAGTATCTGT)”, the “recombinant UMI read abundance (log10)” value was 0.
For “ACATCTACATGGACCGGTTTTCCCGGTAATCCGTATTTGTC (site ACATCTACTCA)”, the “recombinant UMI read abundance (log10)” value was 0.0109.
With “GTTCGAGCATGGACCGGTTTTCCCGGTAATCCGTATTTGCA (site GTTCGGGCTTG)” the “recombinant UMI read abundance (log10)” value was 1.
With “CACTGCTCATGGACCGGTTTTCCCGGTAATCCGTATTTGAA (site CAATGCTCTTT)” the “recombinant UMI read abundance (log10)” value was 0.0153.
With “ACACGTACATGGACCGGTTTTCCCGGTAATCCGTATTTGTC (site ACACGAACTGA)” the “recombinant UMI read abundance (log10)” value was 0.
With “CCCATATCATGGACCGGTTTTCCCGGTAATCCGTATTTGTC (site CCCATATCTGA)” the “recombinant UMI read abundance (log10)” value was 0.747.
For “CAGTTGACATGGACCGGTTTTCCCGGTAATCCGTATTTGGG (site CAGTCGACTCC)”, the “recombinant UMI read abundance (log10)” value was 0.0208.
For “GAAGATTCATGGACCGGTTTTCCCGGTAATCCGTATTTGTT (site GAAGTTTCTAA)”, the “recombinant UMI read abundance (log10)” value was 0.
For “TGCAAGGCATGGACCGGTTTTCCCGGTAATCCGTATTTGGT (site TGCCAGGCTAC)”, the “recombinant UMI read abundance (log10)” value was 0.0164.
With “AGCCACCCATGGACCGGTTTTCCCGGTAATCCGTATTTGTT (site GGCCACCCTAA)” the “recombinant UMI read abundance (log10)” value was 0.
With “AGGACTACATGGACCGGTTTTCCCGGTAATCCGTATTTGAC (site AGGAATACTGT)” the “recombinant UMI read abundance (log10)” value was 1.29.
With “CAGTCAACATGGACCGGTTTTCCCGGTAATCCGTATTTGGG (site CAGTCAACTCC)” the “recombinant UMI read abundance (log10)” value was 0.146.

Source: the supplement of paper PMC11208160
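Also: IS621 bridge recombinase in Escherichia coli cells against a fixed T5 target plasmid.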
